Measured values published in patent US20050203079A1, “Compounds having affinity at 5ht2C receptor and use thereof in therapy” (GLAXO GROUP LIMITED, priority 2002, published 2005).
Structures can show the parent of a compound that is named as a salt.

melting point	Compound
99 to 101 °C	COc1ccc(N2CC=C(c3cccc(Cl)c3)C2=O)cc1OCCN1CCC(C)CC1.Cl
207 to 209 °C	COc1ccc(N2CC=C(c3ccc(F)cc3)C2=O)cc1OCCN1CCCCC1 (as salt: hydrochloride)
